Tests used:
[1] = system: B16 melanoma 4A5 cells; experiment: Theophylline-stimulated melanogenesis inhibition (melanin content); type: cell-based, murine; conditions: Mus musculus, 72 h; for IC50: theophylline (1 mM)-stimulated B16 melanoma 4A5 cells
Description: (§1) The effects on theophylline-stimulated melanogenesis and viability of B16 melanoma 4A5 cells were examined according to previously described protocols. Briefly, murine B16 melanoma 4A5 cells were seeded into 48-well plates in DMEM. After 24 h of culture, a test compound and theophylline (1 mM) were added and incubated for 72 h. The melanin content and cell viability were then measured. IC50 values were determined graphically.
Inhibition (%) was calculated using the following formula, where A and B indicate the optical density of the vehicle- and test compound-treated groups, respectively, and C indicates cell viability (%) (see below): Inhibition (%) = [(A − B)/A]/(C/100) × 100.

[2] = system: tyrosinase protein; experiment: Expression of tyrosinase protein (western blotting); type: cell-based, murine; conditions: B16 4A5 cells, theophylline 1 mM, 72 h
Description: The expression of tyrosinase protein was assessed according to a previously reported method. Briefly, murine B16 melanoma 4A5 cells were seeded into 6-well plates in DMEM. After 24 h of culture, a test compound and theophylline (1 mM) were added and incubated for 72 h. The expression of tyrosinase protein then was measured by western blotting.

[3] = Stability in aqueous solution at elevated temperature (HPLC residual ratio); type: physicochemical; conditions: 20 mg/mL at 125 °C in the dark, after 3 h
Description: To determine stability, the samples were stored at 125 °C, and the residual ratio was calculated by measuring the remaining compound by HPLC. HPLC mobile phase conditions were as follows: AsA was described previously, 6 and 20 were 40% methanol containing 0.1% formic acid at flow rate of 0.2 mL/min [52, 53].

[4] = system: tyrosinase from mushroom; experiment: Mushroom tyrosinase activity; type: biochemical
Description: Tyrosinase activities using L-tyrosine or L-DOPA as a substrate were determined according to the protocols described previously. Briefly, samples, L-tyrosine (2.5 mM, or L-DOPA, 3.0 mM), mushroom tyrosinase (46 units/mL), and phosphate buffer were mixed in a 96-well plate and incubated at 25 °C. (L-tyrosine; 30 min, L-DOPA; 5 min). The absorbance was then measured at 492 nm.

[5] = system: TRP-2 mRNA; experiment: Expression of TRP-2 mRNA (qRT-PCR); type: cell-based, murine; conditions: B16 4A5 cells, theophylline 1 mM, 72 h
Description: (§2) The expression of tyrosinase, TRP-1, and TRP-2 mRNA was assessed according to previously reported methods. Briefly, murine B16 melanoma 4A5 cells were seeded into 96-well plates in DMEM. After 24 h of culture, a test compound and theophylline (1 mM) were added and incubated for 72 h. Then, the amount of each mRNA was quantified by quantitative reverse transcription PCR.

[6] = system: TRP-1 mRNA; experiment: Expression of TRP-1 mRNA (qRT-PCR); type: cell-based, murine; conditions: 30 µM, B16 4A5 cells, theophylline 1 mM, 72 h
Description: as §2

[7] = system: tyrosinase mRNA; experiment: Expression of tyrosinase mRNA (qRT-PCR); type: cell-based, murine; conditions: 30 µM, B16 4A5 cells, theophylline 1 mM, 72 h
Description: as §2

[8] = Cell viability of B16 melanoma 4A5 cells; type: cell-based, murine; conditions: mouse, B16 4A5 cells
Description: as §1

[9] = molecular target: T1, mammalian tyrosinase (Mus musculus, UniProt P11344); experiment: Mammalian tyrosinase activity (B16 cell lysate, L-DOPA); type: biochemical, murine; conditions: L-DOPA as substrate
T1 construct: the cells were solubilized using 0.1% Triton X-100; endogenous in cells; host or cells: B16 melanoma cells (lysate, after 72 h of 1 mM theophylline)
T1 sequence (P11344 19-533): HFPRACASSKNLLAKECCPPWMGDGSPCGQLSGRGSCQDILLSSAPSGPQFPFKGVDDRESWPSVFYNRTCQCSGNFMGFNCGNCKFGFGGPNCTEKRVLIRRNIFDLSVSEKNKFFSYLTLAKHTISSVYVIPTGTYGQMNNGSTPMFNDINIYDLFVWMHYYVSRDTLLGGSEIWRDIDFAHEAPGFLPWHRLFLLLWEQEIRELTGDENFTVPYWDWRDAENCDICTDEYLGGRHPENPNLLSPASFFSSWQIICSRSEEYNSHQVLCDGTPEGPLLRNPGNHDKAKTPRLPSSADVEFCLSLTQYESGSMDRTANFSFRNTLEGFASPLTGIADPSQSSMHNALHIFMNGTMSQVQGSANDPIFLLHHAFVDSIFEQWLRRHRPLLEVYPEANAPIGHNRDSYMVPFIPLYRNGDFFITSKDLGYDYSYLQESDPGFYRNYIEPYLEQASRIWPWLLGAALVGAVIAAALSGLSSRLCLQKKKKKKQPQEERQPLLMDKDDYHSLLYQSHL
Description: Tyrosinase activity using L-DOPA as a substrate was determined according to protocols described previously. Briefly, B16 cells were seeded into 6-well plates in DMEM. After preculture with theophylline (1 mM) for 72 h, the cells were solubilized using 0.1% Triton X-100. Fifty microliters of each lysate and sample was then mixed with 100 µL 2 mM L-DOPA. After the mixtures were incubated for 30 min at 37 °C, the absorbance of each solution at 492 nm was measured.

[10] = system: tyrosinase activity in B16 melanoma 4A5 cells; experiment: Tyrosinase activity in cultured B16 cells; type: cell-based, murine; conditions: B16 4A5 cells, L-DOPA as substrate
Description: Tyrosinase activity in cultured cells was determined according to protocols described previously with modifications. Briefly, B16 melanoma 4A5 cells (4 × 10^3 cells/100 µL/well) were seeded into 96-well plates in DMEM. After pre-culture with sample and theophylline (1 mM) for 72 h, the cells were solubilized using 0.1% Triton X-100, and then each lysate was mixed with 50 μL 2 mM L-DOPA. After the mixtures were incubated for 1 h at 37 °C, the absorbance of the solution at 492 nm was measured using the microplate reader.

[11] = theophylline-stimulated B16 4A5 cells

| IC50 [1] [µM] | Residual ratio in aqueous solution [3] [%] | Inhibition (%) of mushroom tyrosinase ([4]; Substrate: L-DOPA, 30 µM) [%] | Inhibition (%) of mushroom tyrosinase ([4]; Substrate: L-DOPA, 100 µM) [%] | Inhibition (%) of mushroom tyrosinase ([4]; Substrate: L-Tyrosine, 30 µM) [%] | Inhibition (%) of mushroom tyrosinase ([4]; Substrate: L-Tyrosine, 100 µM) [%] | SMILES | inhibition at 100 µM [1, 11] [%] | inhibition at 1000 µM [1, 11] [%] | inhibition at 3000 µM [1, 11] [%] | expression of tyrosinase protein (in words) [2] | TRP-2 mRNA/β-actin mRNA ([5]; 30 µM) | TRP-2 mRNA/β-actin mRNA ([5]; 100 µM) | TRP-1 mRNA/β-actin mRNA [6] | Tyrosinase mRNA/β-actin mRNA [7] | viability at 72 h, 100 µM [8] [%] | viability at 72 h, 1000 µM [8] [%] | viability at 72 h, 3000 µM [8] [%] | also measured |
| --- | --- | --- | --- | --- | --- | --- | --- | --- | --- | --- | --- | --- | --- | --- | --- | --- | --- | --- |
| 117 | 82 | −5.7 ± 5.1 | −2.4 ± 4.2 | 1.4 ± 4.7 | −6.1 ± 0.6 | CCCCCCOC1=C(OCC(O)CO)C(=O)O[C@@H]1[C@@H](O)CO (stereo partly shown) [compound 20, 2-O-(2,3-dihydroxypropyl)-3-O-hexyl-AsA] | 43.5 ± 2.6 | 94.9 ± 1.5 | 80.9 ± 4.1 | suppressed tyrosinase protein expression in a concentration-dependent manner | 1.07 ± 0.30 | 0.88 ± 0.25 | 0.67 ± 0.12 | 0.72 ± 0.10 | 95.3 | 60.8 | 44.7 | inhibition at 300 µM ([1]; 300 µM, theophylline-stimulated B16 4A5 cells): 77 ± 2.1%; viability at 72 h, 300 µM ([8]; 300 µM): 83.9% |
| > 3000 | 9 | – | – | – | – | O=C1O[C@H]([C@@H](O)CO)C(O)=C1O [AsA, L-ascorbic acid] | – | -17.4 ± 4 | 3.8 ± 4.7 | – | – | – | – | – | – | 104 | 89.2 | – |
| 81.4 | 85 | −1.5 ± 1.5 | −1.0 ± 0.7 | −1.5 ± 6.7 | 0.9 ± 1.4 | CCCCCCOC1=C(OCC(O)CO)[C@@H]([C@@H](O)CO)OC1=O (stereo partly shown) [compound 6, 3-O-(2,3-dihydroxypropyl)-2-O-hexyl-AsA] | 53.1 ± 3.1 | – | – | suppressed tyrosinase protein expression in a concentration-dependent manner | 0.53 ± 0.18 | 0.70 ± 0.06 | 0.48 ± 0.15 | 0.60 ± 0.07 | 77.1 | – | – | inhibition at 3 µM ([1]; 3 µM, theophylline-stimulated B16 4A5 cells): -1.8 ± 4.9%; inhibition at 10 µM ([1]; 10 µM, theophylline-stimulated B16 4A5 cells): 5.6 ± 2%; inhibition at 30 µM ([1]; 30 µM, theophylline-stimulated B16 4A5 cells): 26.2 ± 6%; activity on mammalian tyrosinase (in words) [9]: did not show activity; tyrosinase activity in cultured cells (in words) [10]: decreased tyrosinase activity in cultured cells; viability at 72 h, 3 µM ([8]; 3 µM): 102%; viability at 72 h, 10 µM ([8]; 10 µM): 96.1%; viability at 72 h, 30 µM ([8]; 30 µM): 88.4% |
